Patent US6384225B1, “Intermediates in the preparation of substituted chroman derivatives” (AstraZeneca AB, priority 1997, dated 2002)

SMILES	melting point
Cc1ccc(C(=O)N[C@@H]2COc3c(C)ccc(N4CCN(C)CC4)c3C2)cc1 [Example 11, (S)-N-[8-Methyl-5-(4-methylpiperazin-1-yl)-3,4-dihydro-2H-1-benzopyran-3-yl]-4-methylbenzamide]	191 to 192 °C
CN1CCN(c2ccc(C(N)=O)c3c2C[C@H](NC(=O)c2ccc(C(=O)c4ccccc4)cc2)CO3)CC1 [Example 14, (S)-N-[8-Carbamoyl-5-(4-methylpiperazin-1-yl)-3,4-dihydro-2H-1-benzopyran-3-yl]-4-benzoylbenzamide]	259 °C (dec.)
COc1ccc(N2CCN(C)CC2)c2c1OCC(C(=O)Nc1ccc(N3CCOCC3)cc1)C2 (stereo not drawn) [Example 20, N-(4-Morpholinophenyl)-8-methoxy-5-(4-methylpiperazin-1-yl)-3,4-dihydro-2H-1-benzopyran-3-carboxamide]	202 to 204 °C
